{"source": "a compilation of properties of binary mixtures (doi:10.1007/s10953-012-9937-x)", "assay": "xn = mol fraction of the nth substance listed", "details": "298.15 K, 101 kPa", "data": [{"molecule": "CCCCCCCCn1cc[n+](C)c1.F[B-](F)(F)F", "note": "+ CCC(C)=O", "values": [{"measurement": "viscosity", "setting": "x2 = 0", "result": 336, "unit": "mPa·s"}, {"measurement": "viscosity", "setting": "x2 = 0.209", "result": 100.3, "unit": "mPa·s"}, {"measurement": "viscosity", "setting": "x2 = 0.2713", "result": 69.9, "unit": "mPa·s"}, {"measurement": "viscosity", "setting": "x2 = 0.3991", "result": 34.24, "unit": "mPa·s"}, {"measurement": "viscosity", "setting": "x2 = 0.5032", "result": 18.4, "unit": "mPa·s"}, {"measurement": "viscosity", "setting": "x2 = 0.551", "result": 13.82, "unit": "mPa·s"}, {"measurement": "viscosity", "setting": "x2 = 0.6006", "result": 10.26, "unit": "mPa·s"}, {"measurement": "viscosity", "setting": "x2 = 0.6442", "result": 7.54, "unit": "mPa·s"}, {"measurement": "viscosity", "setting": "x2 = 0.9518", "result": 0.63, "unit": "mPa·s"}]}, {"molecule": "CCC(C)=O", "note": "+ CCCCCCCCn1cc[n+](C)c1.F[B-](F)(F)F", "values": [{"measurement": "viscosity", "setting": "x1 = 1", "result": 0.39, "unit": "mPa·s"}]}, {"molecule": "CCCOC(C)=O", "note": "+ CCCCCCCCn1cc[n+](C)c1.F[B-](F)(F)F", "values": [{"measurement": "viscosity", "setting": "x1 = 1", "result": 0.56, "unit": "mPa·s"}]}, {"molecule": "CCOC(C)=O", "note": "+ CCCCCCCCn1cc[n+](C)c1.F[B-](F)(F)F", "values": [{"measurement": "viscosity", "setting": "x1 = 1", "result": 0.44, "unit": "mPa·s"}]}, {"molecule": "COC(C)=O", "note": "+ CCCCCCCCn1cc[n+](C)c1.F[B-](F)(F)F", "values": [{"measurement": "viscosity", "setting": "x1 = 1", "result": 0.39, "unit": "mPa·s"}]}, {"molecule": "CCCCCCCCn1cc[n+](C)c1.F[B-](F)(F)F", "note": "+ CCCCOC(C)=O", "values": [{"measurement": "viscosity", "setting": "x2 = 0", "result": 336, "unit": "mPa·s"}, {"measurement": "viscosity", "setting": "x2 = 0.1989", "result": 124.4, "unit": "mPa·s"}, {"measurement": "viscosity", "setting": "x2 = 0.3002", "result": 74.3, "unit": "mPa·s"}, {"measurement": "viscosity", "setting": "x2 = 0.3991", "result": 45.91, "unit": "mPa·s"}, {"measurement": "viscosity", "setting": "x2 = 0.502", "result": 27.13, "unit": "mPa·s"}, {"measurement": "viscosity", "setting": "x2 = 0.5548", "result": 20.31, "unit": "mPa·s"}, {"measurement": "viscosity", "setting": "x2 = 0.6024", "result": 15.79, "unit": "mPa·s"}, {"measurement": "viscosity", "setting": "x2 = 0.654", "result": 11.56, "unit": "mPa·s"}, {"measurement": "viscosity", "setting": "x2 = 0.7075", "result": 8.27, "unit": "mPa·s"}, {"measurement": "viscosity", "setting": "x2 = 0.8007", "result": 4.31, "unit": "mPa·s"}, {"measurement": "viscosity", "setting": "x2 = 0.95", "result": 1.14, "unit": "mPa·s"}]}, {"molecule": "CCCCCCCCn1cc[n+](C)c1.F[B-](F)(F)F", "note": "+ CCCOC(C)=O", "values": [{"measurement": "viscosity", "setting": "x2 = 0", "result": 336, "unit": "mPa·s"}, {"measurement": "viscosity", "setting": "x2 = 0.1006", "result": 198.9, "unit": "mPa·s"}, {"measurement": "viscosity", "setting": "x2 = 0.197", "result": 121.1, "unit": "mPa·s"}, {"measurement": "viscosity", "setting": "x2 = 0.2972", "result": 75.8, "unit": "mPa·s"}, {"measurement": "viscosity", "setting": "x2 = 0.4992", "result": 25.67, "unit": "mPa·s"}, {"measurement": "viscosity", "setting": "x2 = 0.6013", "result": 14.19, "unit": "mPa·s"}, {"measurement": "viscosity", "setting": "x2 = 0.6504", "result": 10.55, "unit": "mPa·s"}, {"measurement": "viscosity", "setting": "x2 = 0.7065", "result": 7.48, "unit": "mPa·s"}, {"measurement": "viscosity", "setting": "x2 = 0.7992", "result": 3.75, "unit": "mPa·s"}, {"measurement": "viscosity", "setting": "x2 = 0.9043", "result": 1.51, "unit": "mPa·s"}, {"measurement": "viscosity", "setting": "x2 = 0.9529", "result": 0.91, "unit": "mPa·s"}]}, {"molecule": "CCCCCCCCn1cc[n+](C)c1.F[B-](F)(F)F", "note": "+ CCOC(C)=O", "values": [{"measurement": "viscosity", "setting": "x2 = 0", "result": 336, "unit": "mPa·s"}, {"measurement": "viscosity", "setting": "x2 = 0.1092", "result": 181, "unit": "mPa·s"}, {"measurement": "viscosity", "setting": "x2 = 0.2953", "result": 69.8, "unit": "mPa·s"}, {"measurement": "viscosity", "setting": "x2 = 0.4999", "result": 23.13, "unit": "mPa·s"}, {"measurement": "viscosity", "setting": "x2 = 0.5507", "result": 17.01, "unit": "mPa·s"}, {"measurement": "viscosity", "setting": "x2 = 0.7012", "result": 6.56, "unit": "mPa·s"}, {"measurement": "viscosity", "setting": "x2 = 0.9005", "result": 1.284, "unit": "mPa·s"}]}, {"molecule": "CCCCCCCCn1cc[n+](C)c1.F[B-](F)(F)F", "note": "+ COC(C)=O", "values": [{"measurement": "viscosity", "setting": "x2 = 0", "result": 336, "unit": "mPa·s"}, {"measurement": "viscosity", "setting": "x2 = 0.1173", "result": 188, "unit": "mPa·s"}, {"measurement": "viscosity", "setting": "x2 = 0.2964", "result": 70, "unit": "mPa·s"}, {"measurement": "viscosity", "setting": "x2 = 0.4063", "result": 34.24, "unit": "mPa·s"}, {"measurement": "viscosity", "setting": "x2 = 0.4511", "result": 24.78, "unit": "mPa·s"}, {"measurement": "viscosity", "setting": "x2 = 0.4964", "result": 18.4, "unit": "mPa·s"}, {"measurement": "viscosity", "setting": "x2 = 0.6056", "result": 10.26, "unit": "mPa·s"}, {"measurement": "viscosity", "setting": "x2 = 0.6519", "result": 7.54, "unit": "mPa·s"}, {"measurement": "viscosity", "setting": "x2 = 0.7027", "result": 5.04, "unit": "mPa·s"}, {"measurement": "viscosity", "setting": "x2 = 0.8989", "result": 1.03, "unit": "mPa·s"}]}]}
